The nature of assay [1]: Inhibition of Saccharomyces cerevisiae alpha-glucosidase using 4-nitrophenyl alpha-D-glucopyranoside as substrate preincubated for 120 mins.
Assay [2] deals with Saccharomyces cerevisiae. As to the kind of experiment: Time dependent inhibition of Saccharomyces cerevisiae alpha-glucosidase using 4-nitrophenyl alpha-D-glucopyranoside as substrate.
The test system of assay [3] is Saccharomyces cerevisiae. As to the kind of experiment: Inhibition of Saccharomyces cerevisiae alpha-glucosidase using 4-nitrophenyl alpha-D-glucopyranoside as substrate.
Assay [4] concerns Saccharomyces cerevisiae. Description: Irreversible inhibition of Saccharomyces cerevisiae alpha-glucosidase using 4-nitrophenyl alpha-D-glucopyranoside as substrate at 300 uM after 30 mins.

Activity calls are given as the source filed them. The calls are words filed in the database; no cut-off is given here.

The IC50 is the point on the concentration scale where inhibition reaches its midpoint. A high value points to weaker potency. As for `N#Cc1c(NC(=O)CC2SC(N)=NC2=O)sc2c1CCCCCC2` (racemic) [listing 1 of 2 here], the IC50 in assay [1] came out at 2.47 µM.
The same measure, in the same setting: then `CC(C)(C)C1CCc2c(sc(NC(=O)CC3SC(N)=NC3=O)c2C#N)C1` (racemic) [listing 1 of 2 here], with 27.1 µM.
Turning to `CC(C)(C)C1CCc2c(sc(NC(=O)CC3SC(N)=NC3=O)c2C#N)C1` (racemic) [listing 2 of 2 here], the TDI entry in assay [2] is “Active”. In addition, the inhibition entry in assay [3] and in assay [4] was “Active” each time.
With `N#Cc1c(NC(=O)CC2SC(N)=NC2=O)sc2c1CCCCCC2` (racemic) [listing 2 of 2 here], the TDI result in assay [2] was “Active”. Besides, the inhibition result in assay [3] and in assay [4] was “Active” throughout.
With `CC(C)(C)C1CCc2c(sc(NC(=O)CC3SC(N)=NC3=O)c2C#N)C1` (single isomer, unassigned; enantiomer 1), the inhibition entry in assay [3] was “inactive”.
Same read-out and setting: then `N#Cc1c(NC(=O)CC2SC(N)=NC2=O)sc2c1CCCCCC2` (single isomer, unassigned; enantiomer 1), with “inactive”.
With `CC(C)(C)C1CCc2c(sc(NC(=O)CC3SC(N)=NC3=O)c2C#N)C1` (single isomer, unassigned; enantiomer 2), the inhibition result in assay [3] is “inactive”.
The same measure, in the same setting: in the case of `N#Cc1c(NC(=O)CC2SC(N)=NC2=O)sc2c1CCCCCC2` (single isomer, unassigned; enantiomer 2) it was “inactive”.

The values above are taken from ChEMBL document CHEMBL1932982, “Virtual ligand screening of α-glucosidase: Identification of a novel potent noncarbohydrate mimetic inhibitor” (Bioorg Med Chem Lett, 2012).
